Source: patent publication US20240293351A1, “METHODS OF ADMINISTERING SYNTHETIC TRITERPENOIDS” (REATA PHARMACEUTICALS HOLDINGS, LLC, priority 2020, published 2024)
Where “and” joins values, the source holds several entries; their conditions need not be identical. Equal entries are not always repeated. Where two headings read alike, the source gives them in different places.

Tests used:
[1] = Pharmacokinetic study 402-C-1102 in patients with type 2 diabetes and stage 3b/4 CKD (24-h urine); assay type: in vivo, human; details: 20 mg once daily 56 days
[2] = BEAM (402-C-0804) phase 2b study, crystalline formulation; assay type: in vivo, human
[3] = BEACON 24-hour ABPM / 24-hr urine collection sub-study; assay type: in vivo, human
Description: A subset of the BEACON patients consented to additional 24-hour assessments including ambulatory blood pressure monitoring (ABPM) and 24-hour urine collections. An independent Events Adjudication Committee (EAC), blinded to study treatment assignment, evaluated whether renal events, cardiovascular events, and neurological events met the pre-specified definitions of the primary and secondary endpoints. An IDMC, consisting of external clinical experts supported by an independent statistical group, reviewed unblinded safety data throughout the study and made recommendations as appropriate.
A subset of patients consented to additional 24-hr assessments (sub-study) of ambulatory blood pressure monitoring (ABPM) and 24-hr urine collection at selected visits. […] Also of note, reductions in serum magnesium were not associated with renal loss of magnesium.

[4] = ITT N = 1088, adjudicated primary endpoints
[5] = post-hoc ITT, Observed N, randomized 1088
[6] = post-hoc, Age ≤ 75, randomized 786
[7] = post-hoc, BL ACR ≤ 300, eGFR > 20, BNP ≤ 200, randomized 209
[8] = post-hoc, BL ACR ≤ 1000, eGFR > 20, Age ≤ 75, randomized 368
[9] = post-hoc, BL ACR ≤ 1000, randomized 798
[10] = post-hoc, BL BNP ≤ 200, randomized 559
[11] = post-hoc, BL eGFR > 20, randomized 735
[12] = post-hoc, No h/o HF, randomized 922
[13] = Crystalline 25 mg QD 52 weeks, N = 57
[14] = Crystalline 75 mg QD 52 weeks, N = 57
[15] = Crystalline 150 mg QD 52 weeks, N = 56

COC(=O)[C@]12CCC(C)(C)C[C@H]1[C@H]1C(=O)C=C3[C@@]4(C)C=C(C#N)C(=O)C(C)(C)[C@@H]4CC[C@@]3(C)[C@]1(C)CC2 [Bardoxolone methyl, methyl-2-cyano-3,12-dioxooleana-1,9-dien-28-oic acid]
Occurrence of Death (BEACON, ITT, BARD 20 mg (N = 1088), deaths at database lock): 4.0%
Occurrence of ESRD (BEACON, ITT, BARD 20 mg (N = 1088), events through last date of contact): 4.0%
Patient's first event: CV death, patients [4]: 26 n
Patient's first event: Chronic dialysis, patients [4]: 40 n
Patient's first event: End stage renal disease (ESRD), patients [4]: 43 n
Patient's first event: Renal death, patients [4]: 2 n
Patient's first event: Renal transplant, patients [4]: 1 n
Composite primary efficacy outcome (ESRD or CV death), patients (ITT N = 1088, adjudicated, on or before study termination): 69 n
SAE Infections and infestations, patients (ITT, All Patients N = 1088): 79
SAE Infections and infestations, patients (ITT, BL ACR ≤ 300, eGFR > 20, BNP ≤ 200, N = 209): 9
SAE Infections and infestations, patients (ITT, BL ACR ≤ 1000, eGFR > 20, Age ≤ 75, N = 368): 20
Treatment-emergent SAE: Infections and infestations, patients (Safety Population N = 1092, 20 mg once daily): 79 n
Fatal heart failure events (final analysis): three
Hy's Law cases (human, in vivo): no Hy's Law cases were observed
Increase in BNP from baseline, Mean±SD (human, in vivo): 225 ± 598 pg/mL
K^+ Retention (human, in vivo): None
Mean WK 24 ΔeGFR (human, in vivo): 6.1 and 5.5 and 7.6
Mean increase in diastolic blood pressure (human, in vivo): 1.4 mmHg
Mean increase in systolic blood pressure (human, in vivo): 1.9 mmHg
N of patients with WK 24 BNP change 25% to 100% Increase (human, in vivo): 45
N of patients with WK 24 BNP change <25% Increase (human, in vivo): 84
N of patients with WK 24 BNP change ≥100% Increase (human, in vivo): 82
QTc prolongation (human, in vivo): not associated with QTc prolongation
SAE Endocrine disorders, patients (human, in vivo): 1
QTcF interval, change from baseline, 25th quartile (human, in vivo, 24 weeks): -13 ms
QTcF interval, change from baseline, 75th quartile (human, in vivo, 24 weeks): 10 ms
QTcF interval, change from baseline, Mean (SD) (human, in vivo, 24 weeks): −0.9 (19.2) msec
QTcF interval, change from baseline, Range (min, max) (human, in vivo, 24 weeks): −88, 69
QTcF interval, change from baseline, median (human, in vivo, 24 weeks): -1 ms
QTcF interval, observed, 25th quartile (human, in vivo, 24 weeks): 407 ms
QTcF interval, observed, 75th quartile (human, in vivo, 24 weeks): 443 ms
QTcF interval, observed, Mean (SD) (human, in vivo, 24 weeks): 425.8 (26.5) msec
QTcF interval, observed, median (human, in vivo, 24 weeks): 425 ms
All-Cause Death, patients [5]: 44
ESRD, patients with event [5]: 47
All-Cause Death, patients [6]: 20
ESRD, patients with event [6]: 38
All-Cause Death, patients [7]: 5
ESRD, patients with event [7]: 1
All-Cause Death, patients [8]: 11
ESRD, patients with event [8]: 9
All-Cause Death, patients [9]: 32
ESRD, patients with event [9]: 21
All-Cause Death, patients [10]: 14
ESRD, patients with event [10]: 12
All-Cause Death, patients [11]: 27
ESRD, patients with event [11]: 18
All-Cause Death, patients [12]: 35
ESRD, patients with event [12]: 35
Deaths confirmed as cardiovascular, patients (prior to clinical database lock (Mar. 4, 2013)): 29
24-h Urinary Sodium, WK 8 Δ from baseline, mean ([1]; CKD Stage 3b, N = 9): −12 mmol/24 h
24-h Urine Volume, WK 8 Δ from baseline, mean ([1]; CKD Stage 3b, N = 9): 355 mL
24-h Urinary Sodium, WK 8 Δ from baseline, mean ([1]; CKD Stage 4, N = 6): −89 mmol/24 h
24-h Urine Volume, WK 8 Δ from baseline, mean ([1]; CKD Stage 4, N = 6): -610 mL
AE, SOC Card: Cardiac failure congestive, patients n (%) [2, 13]: 2 (4)
AE, SOC Card: Dyspnoea paroxysmal nocturnal, patients n (%) [2, 13]: 0
AE, SOC Card: Oedema peripheral, patients n (%) [2, 13]: 4 (7)
AE, SOC Genrl: Generalised oedema, patients n (%) [2, 13]: 2 (4)
AE, SOC Genrl: Oedema peripheral, patients n (%) [2, 13]: 11 (19)
AE, SOC Inv: Ejection fraction decreased, patients n (%) [2, 13]: 1 (2)
AE, SOC Metab: Fluid overload, patients n (%) [2, 13]: 3 (5)
AE, SOC Metab: Oedema peripheral, patients n (%) [2, 13]: 3 (5)
AE, SOC Resp: Dyspnoea exertional, patients n (%) [2, 13]: 1 (2)
AE, SOC Resp: Dyspnoea, patients n (%) [2, 13]: 2 (4)
AE, SOC Resp: Orthopnoea, patients n (%) [2, 13]: 0
AE, SOC Resp: Pulmonary oedema, patients n (%) [2, 13]: 0
SAE, SOC Card: Cardiac failure congestive, patients n (%) [2, 13]: 2 (4)
SAE, SOC Genrl: Oedema peripheral, patients n (%) [2, 13]: 0
SAE, SOC Metab: Fluid overload, patients n (%) [2, 13]: 1 (2)
SAE, SOC Resp: Dyspnoea, patients n (%) [2, 13]: 0
SAE, SOC Resp: Pulmonary oedema, patients n (%) [2, 13]: 0
AE, SOC Card: Cardiac failure congestive, patients n (%) [2, 14]: 3 (5)
AE, SOC Card: Dyspnoea paroxysmal nocturnal, patients n (%) [2, 14]: 1 (2)
AE, SOC Card: Oedema peripheral, patients n (%) [2, 14]: 3 (5)
AE, SOC Genrl: Generalised oedema, patients n (%) [2, 14]: 0
AE, SOC Genrl: Oedema peripheral, patients n (%) [2, 14]: 10 (18)
AE, SOC Inv: Ejection fraction decreased, patients n (%) [2, 14]: 0
AE, SOC Metab: Fluid overload, patients n (%) [2, 14]: 2 (4)
AE, SOC Metab: Oedema peripheral, patients n (%) [2, 14]: 1 (2)
AE, SOC Resp: Dyspnoea exertional, patients n (%) [2, 14]: 0
AE, SOC Resp: Dyspnoea, patients n (%) [2, 14]: 6 (11)
AE, SOC Resp: Orthopnoea, patients n (%) [2, 14]: 0
AE, SOC Resp: Pulmonary oedema, patients n (%) [2, 14]: 1 (2)
SAE, SOC Card: Cardiac failure congestive, patients n (%) [2, 14]: 2 (4)
SAE, SOC Genrl: Oedema peripheral, patients n (%) [2, 14]: 0
SAE, SOC Metab: Fluid overload, patients n (%) [2, 14]: 1 (2)
SAE, SOC Resp: Dyspnoea, patients n (%) [2, 14]: 0
SAE, SOC Resp: Pulmonary oedema, patients n (%) [2, 14]: 1 (2)
AE, SOC Card: Cardiac failure congestive, patients n (%) [2, 15]: 3 (5)
AE, SOC Card: Dyspnoea paroxysmal nocturnal, patients n (%) [2, 15]: 0
AE, SOC Card: Oedema peripheral, patients n (%) [2, 15]: 4 (7)
AE, SOC Genrl: Generalised oedema, patients n (%) [2, 15]: 0
AE, SOC Genrl: Oedema peripheral, patients n (%) [2, 15]: 11 (20)
AE, SOC Inv: Ejection fraction decreased, patients n (%) [2, 15]: 0
AE, SOC Metab: Fluid overload, patients n (%) [2, 15]: 0
AE, SOC Metab: Oedema peripheral, patients n (%) [2, 15]: 3 (5)
AE, SOC Resp: Dyspnoea exertional, patients n (%) [2, 15]: 3 (5)
AE, SOC Resp: Dyspnoea, patients n (%) [2, 15]: 4 (7)
AE, SOC Resp: Orthopnoea, patients n (%) [2, 15]: 0
AE, SOC Resp: Pulmonary oedema, patients n (%) [2, 15]: 0
SAE, SOC Card: Cardiac failure congestive, patients n (%) [2, 15]: 2 (4)
SAE, SOC Genrl: Oedema peripheral, patients n (%) [2, 15]: 1 (2)
SAE, SOC Metab: Fluid overload, patients n (%) [2, 15]: 0
SAE, SOC Resp: Dyspnoea, patients n (%) [2, 15]: 0
SAE, SOC Resp: Pulmonary oedema, patients n (%) [2, 15]: 0
Blood pressure ([2]; crystalline formulation, titration design): no clear dose-related trend was observed in blood pressure
Urinary Magnesium, WK4 Δ from baseline, mean ([3]; n = 40): −0.9 mmol/24 h
Urinary Magnesium, WK4, mean ([3]; n = 43): 6.0 mmol/24 h
Urinary Potassium, WK4 Δ from baseline, mean ([3]; n = 57): −7 mmol/24 h
Urinary Sodium, WK4 Δ from baseline, mean ([3]; n = 57): −27 mmol/24 h
Urinary Potassium, WK4, mean ([3]; n = 61): 52 mmol/24 h
Urinary Sodium, WK4, mean ([3]; n = 61): 140 mmol/24 h
24-hour Urine Volume, WK4 Δ from baseline, mean ([3]; n = 63): -247 mL
24-hour Urine Volume, WK4, mean ([3]; n = 64): 1792 mL
Serum Magnesium, WK4, mean ([3]; n = 77): 1.53 mEq/L
Serum Magnesium, WK4 Δ from baseline, mean ([3]; n = 77): −0.21 mEq/L
Serum Potassium, WK4 Δ from baseline, mean ([3]; n = 77): 0.10 mmol/L
Serum Sodium, WK4, mean ([3]; n = 77): 140.3 mmol/L
Serum Sodium, WK4 Δ from baseline, mean ([3]; n = 77): 0.2 mmol/L
Serum Potassium, WK4, mean ([3]; n = 77, 20 mg once daily): 4.8 mmol/L
